According to ChEMBL document CHEMBL4373715, “Discovery and Biological Evaluations of Halogenated 2,4-Diphenyl Indeno[1,2-b]pyridinol Derivatives as Potent Topoisomerase IIα-Targeted Chemotherapeutic Agents for Breast Cancer” (J Med Chem, 2019):
pIC50: −log10 of the molar value.

Legend:
HCT-15 = experiment: Antiproliferative activity against human HCT15 cells measured after 72 hrs by EZ-Cytox assay; assay type: functional, cell-based; settings: HCT-15, 72 h
T47D = experiment: Antiproliferative activity against human T47D cells measured after 72 hrs by EZ-Cytox assay; assay type: functional, cell-based
HeLa = experiment: Antiproliferative activity against human HeLa cells measured after 72 hrs by EZ-Cytox assay; assay type: functional, cell-based
DU-145 = experiment: Antiproliferative activity against human DU145 cells measured after 72 hrs by EZ-Cytox assay; assay type: functional, cell-based; settings: DU-145, 72 h
[1] = target: DNA topoisomerase 2-alpha (Homo sapiens) (UniProt P11388); experiment: Inhibition of recombinant human topoisomerase 2alpha-mediated relaxation of supercoiled pBR322 DNA at 100 uM measured after 30 mins by ethidium bromide staining based agarose gel electrophoresis relative to control
[2] = target: T1, DNA topoisomerase 1 (Homo sapiens) (UniProt P11387); experiment: Inhibition of recombinant human topoisomerase 1-mediated relaxation of supercoiled pBR322 DNA at 100 uM measured after 30 mins by ethidium bromide staining based agarose gel electrophoresis relative to control
T1 sequence (whole entry): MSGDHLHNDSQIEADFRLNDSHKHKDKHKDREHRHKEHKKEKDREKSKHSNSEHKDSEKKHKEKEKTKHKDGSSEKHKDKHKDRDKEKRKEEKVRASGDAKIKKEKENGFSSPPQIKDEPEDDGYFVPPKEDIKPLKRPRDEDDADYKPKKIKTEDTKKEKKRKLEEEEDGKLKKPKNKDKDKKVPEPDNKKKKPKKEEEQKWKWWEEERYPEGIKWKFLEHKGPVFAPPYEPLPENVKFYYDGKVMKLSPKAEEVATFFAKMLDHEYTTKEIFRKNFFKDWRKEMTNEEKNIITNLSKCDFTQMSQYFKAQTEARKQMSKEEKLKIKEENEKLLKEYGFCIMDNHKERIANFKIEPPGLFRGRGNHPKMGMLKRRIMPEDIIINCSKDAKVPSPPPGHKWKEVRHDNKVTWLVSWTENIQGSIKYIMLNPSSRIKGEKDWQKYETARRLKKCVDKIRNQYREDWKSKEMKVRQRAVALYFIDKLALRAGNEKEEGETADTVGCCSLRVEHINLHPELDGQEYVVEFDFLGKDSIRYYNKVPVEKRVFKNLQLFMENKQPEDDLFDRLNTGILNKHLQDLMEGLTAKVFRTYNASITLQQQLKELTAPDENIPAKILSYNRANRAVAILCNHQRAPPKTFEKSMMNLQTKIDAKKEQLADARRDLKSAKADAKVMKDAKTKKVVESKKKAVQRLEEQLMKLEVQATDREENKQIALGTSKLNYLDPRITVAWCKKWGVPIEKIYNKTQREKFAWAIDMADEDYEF

Chain of DNA topoisomerase 2-alpha (Homo sapiens) (P11388 whole entry): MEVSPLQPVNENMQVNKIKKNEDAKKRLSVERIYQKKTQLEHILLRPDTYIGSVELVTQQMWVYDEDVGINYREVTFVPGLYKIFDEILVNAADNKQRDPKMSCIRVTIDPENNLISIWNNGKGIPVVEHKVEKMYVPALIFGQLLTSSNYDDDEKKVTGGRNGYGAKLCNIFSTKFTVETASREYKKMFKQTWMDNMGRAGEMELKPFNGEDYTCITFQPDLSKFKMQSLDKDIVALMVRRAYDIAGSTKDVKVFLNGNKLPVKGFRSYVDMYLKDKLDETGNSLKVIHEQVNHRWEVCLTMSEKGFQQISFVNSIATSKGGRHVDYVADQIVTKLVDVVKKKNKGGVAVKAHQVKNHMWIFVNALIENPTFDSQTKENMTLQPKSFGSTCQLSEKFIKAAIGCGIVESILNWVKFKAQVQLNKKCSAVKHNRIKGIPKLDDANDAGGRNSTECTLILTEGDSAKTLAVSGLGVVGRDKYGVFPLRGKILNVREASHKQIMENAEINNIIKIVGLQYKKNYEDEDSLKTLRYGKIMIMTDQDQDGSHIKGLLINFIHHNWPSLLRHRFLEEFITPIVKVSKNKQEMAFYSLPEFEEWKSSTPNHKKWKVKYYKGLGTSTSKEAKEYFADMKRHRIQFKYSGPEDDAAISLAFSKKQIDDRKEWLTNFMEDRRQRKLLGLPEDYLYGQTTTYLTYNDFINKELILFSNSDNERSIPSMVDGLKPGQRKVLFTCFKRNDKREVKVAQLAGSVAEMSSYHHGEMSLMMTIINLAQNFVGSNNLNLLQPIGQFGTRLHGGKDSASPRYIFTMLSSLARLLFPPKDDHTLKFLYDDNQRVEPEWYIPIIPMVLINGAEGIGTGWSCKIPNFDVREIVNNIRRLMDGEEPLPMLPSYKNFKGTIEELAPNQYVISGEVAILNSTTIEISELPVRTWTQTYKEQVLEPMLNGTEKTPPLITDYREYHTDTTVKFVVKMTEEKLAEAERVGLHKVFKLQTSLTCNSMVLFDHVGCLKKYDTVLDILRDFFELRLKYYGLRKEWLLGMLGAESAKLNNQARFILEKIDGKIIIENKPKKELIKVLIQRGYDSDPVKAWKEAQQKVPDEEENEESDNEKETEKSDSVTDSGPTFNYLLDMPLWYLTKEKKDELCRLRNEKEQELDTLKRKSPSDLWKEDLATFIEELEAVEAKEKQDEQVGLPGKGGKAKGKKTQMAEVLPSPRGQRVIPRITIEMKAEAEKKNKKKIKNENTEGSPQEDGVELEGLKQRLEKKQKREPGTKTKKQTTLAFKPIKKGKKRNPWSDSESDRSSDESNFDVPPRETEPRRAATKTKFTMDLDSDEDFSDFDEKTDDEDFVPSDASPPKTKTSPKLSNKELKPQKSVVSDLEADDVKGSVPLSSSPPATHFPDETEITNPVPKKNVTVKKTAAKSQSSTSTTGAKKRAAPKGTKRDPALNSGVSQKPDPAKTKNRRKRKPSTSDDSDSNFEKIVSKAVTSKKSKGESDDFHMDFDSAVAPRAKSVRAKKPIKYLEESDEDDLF

inhibition [1] [%]	inhibition [2] [%]	SMILES	pIC50 (HCT-15)	pIC50 (T47D)	pIC50 (HeLa)	pIC50 (DU-145)
6.3	1.6	Oc1cccc(-c2cc(-c3ccccc3)nc3c2Cc2cccc(O)c2-3)c1	5.83	5.70	5.69	6.14
8.7	4	Oc1cccc(-c2cc(-c3ccccc3F)nc3c2Cc2cccc(O)c2-3)c1	5.08	6.08	4.92	5.73
4.5	0.4	Oc1cccc(-c2cc(-c3ccccc3)c3c(n2)-c2cccc(O)c2C3)c1	5.80	5.41	5.21	6.28
3.7	1.1	Oc1ccc(-c2cc(-c3ccccc3)c3c(n2)-c2c(O)cccc2C3)cc1	< 4.30	4.94	5.69	6.18
1.2	0.5	Oc1cccc(-c2cc(-c3ccccc3)nc3c2Cc2ccc(O)cc2-3)c1	5.86	6.08	5.86	5.80
8.4	0	Oc1ccccc1-c1cc(-c2cccc(F)c2)nc2c1Cc1cccc(O)c1-2	5.30	6.13	5.10	5.00
0	0	Oc1cccc(-c2cc(-c3ccccc3)c3c(n2)-c2c(O)cccc2C3)c1	< 4.30	5.43	< 4.30	6.37
4	10.2	Oc1ccc(-c2cc(-c3ccccc3)nc3c2Cc2cccc(O)c2-3)cc1	< 4.30	< 4.30	< 4.30	5.38
24.4	0	Oc1ccc(-c2cc(-c3cccc(Cl)c3)nc3c2Cc2cccc(O)c2-3)cc1	5.89	6.08	5.21	7.52
17.8	14	Oc1cccc(-c2cc(-c3cccc(F)c3)nc3c2Cc2cccc(O)c2-3)c1	< 4.30	5.94	4.82	6.03
27.3	2.3	Oc1cccc(-c2cc(-c3ccc(F)cc3)nc3c2Cc2cccc(O)c2-3)c1	5.39	5.65	5.06	5.48
1.2	1	Oc1ccccc1-c1cc(-c2ccccc2)c2c(n1)-c1c(O)cccc1C2	< 4.30	< 4.30	< 4.30	5.02

The remaining lines, values behind:

SMILES	inhibition [1] [%]	inhibition [2] [%]	pIC50 (HCT-15)	pIC50 (T47D)	pIC50 (HeLa)	pIC50 (DU-145)
Oc1cccc(-c2cc(-c3ccc(C(F)(F)F)cc3)nc3c2Cc2c(O)cccc2-3)c1	10.9	0.7	5.16	5.21	5.20	5.30
Oc1ccc2c(c1)-c1nc(-c3ccccc3O)cc(-c3ccccc3)c1C2	2.8	0	< 4.30	< 4.30	< 4.30	5.73
Oc1cccc(-c2cc(-c3ccccc3F)nc3c2Cc2c(O)cccc2-3)c1	22.4	9.7	5.30	5.57	5.17	5.69
Oc1ccc(-c2cc(-c3cccc(F)c3)nc3c2Cc2ccc(O)cc2-3)cc1	6.2	3	5.35	6.15	5.06	5.32
Oc1ccc(-c2cc(-c3ccccc3)nc3c2Cc2c(O)cccc2-3)cc1	1.5	4.4	5.56	5.54	5.71	5.89
Oc1ccc2c(c1)Cc1c(-c3ccccc3)cc(-c3ccccc3O)nc1-2	19	2	< 4.30	< 4.30	< 4.30	5.79
Oc1ccc2c(c1)-c1nc(-c3ccc(F)cc3)cc(-c3ccccc3O)c1C2	23.3	0	5.50	6.72	5.36	5.46
Oc1ccc2c(c1)Cc1c(-c3ccccc3O)cc(-c3ccccc3F)nc1-2	13.4	0	5.47	6.15	5.31	5.42
Oc1ccccc1-c1cc(-c2ccccc2F)nc2c1Cc1cccc(O)c1-2	0.6	0	5.42	5.34	5.12	5.00
Oc1ccccc1-c1cc(-c2ccccc2)c2c(n1)-c1cccc(O)c1C2	1.1	6.6	< 4.30	5.19	5.74	5.60
Oc1ccc2c(c1)Cc1c(-c3ccccc3O)cc(-c3cccc(F)c3)nc1-2	28	0	5.37	6.07	5.61	5.50
Oc1ccc(-c2cc(-c3ccccc3)nc3c2Cc2ccc(O)cc2-3)cc1	2.4	6	< 4.30	5.52	< 4.30	5.86
Oc1ccc2c(c1)-c1nc(-c3ccccc3F)cc(-c3ccccc3O)c1C2	27	0	5.53	6.21	5.36	5.39
Oc1ccc(-c2cc(-c3ccccc3F)nc3c2Cc2cc(O)ccc2-3)cc1	10.6	12.2	5.52	5.86	5.32	5.90
Oc1ccc2c(c1)Cc1c(-c3ccccc3O)cc(-c3ccc(F)cc3)nc1-2	6	0	5.34	5.50	4.84	5.32
Oc1ccc(-c2cc(-c3ccccc3F)nc3c2Cc2ccc(O)cc2-3)cc1	6.4	3.3	< 4.30	4.53	< 4.30	4.85
Oc1ccc(-c2cc(-c3ccccc3C(F)(F)F)nc3c2Cc2cccc(O)c2-3)cc1	2.9	3	< 4.30	5.84	< 4.30	< 4.30
Oc1ccc(-c2cc(-c3ccc(Cl)cc3)nc3c2Cc2cccc(O)c2-3)cc1	26.2	0.2	< 4.30	< 4.30	< 4.30	5.55
Oc1ccc(-c2cc(-c3cccc(F)c3)nc3c2Cc2c(O)cccc2-3)cc1	0.7	8.6	5.32	6.24	5.14	5.69
Oc1ccc(-c2cc(-c3ccccc3F)nc3c2Cc2c(O)cccc2-3)cc1	15.3	5.4	5.55	6.06	5.21	5.74
